# Measured values published in patent publication US20230150970A1, “AMINOPYRIMIDINE DERIVATIVES AND THEIR USE AS ARYL HYDROCARBON RECEPTOR MODULATORS” (DONG-A ST CO., LTD., priority 2020, published 2023).
# Molecular target: T1, AhR (Homo sapiens, UniProt P35869)
# T1 sequence (P35869 11-848): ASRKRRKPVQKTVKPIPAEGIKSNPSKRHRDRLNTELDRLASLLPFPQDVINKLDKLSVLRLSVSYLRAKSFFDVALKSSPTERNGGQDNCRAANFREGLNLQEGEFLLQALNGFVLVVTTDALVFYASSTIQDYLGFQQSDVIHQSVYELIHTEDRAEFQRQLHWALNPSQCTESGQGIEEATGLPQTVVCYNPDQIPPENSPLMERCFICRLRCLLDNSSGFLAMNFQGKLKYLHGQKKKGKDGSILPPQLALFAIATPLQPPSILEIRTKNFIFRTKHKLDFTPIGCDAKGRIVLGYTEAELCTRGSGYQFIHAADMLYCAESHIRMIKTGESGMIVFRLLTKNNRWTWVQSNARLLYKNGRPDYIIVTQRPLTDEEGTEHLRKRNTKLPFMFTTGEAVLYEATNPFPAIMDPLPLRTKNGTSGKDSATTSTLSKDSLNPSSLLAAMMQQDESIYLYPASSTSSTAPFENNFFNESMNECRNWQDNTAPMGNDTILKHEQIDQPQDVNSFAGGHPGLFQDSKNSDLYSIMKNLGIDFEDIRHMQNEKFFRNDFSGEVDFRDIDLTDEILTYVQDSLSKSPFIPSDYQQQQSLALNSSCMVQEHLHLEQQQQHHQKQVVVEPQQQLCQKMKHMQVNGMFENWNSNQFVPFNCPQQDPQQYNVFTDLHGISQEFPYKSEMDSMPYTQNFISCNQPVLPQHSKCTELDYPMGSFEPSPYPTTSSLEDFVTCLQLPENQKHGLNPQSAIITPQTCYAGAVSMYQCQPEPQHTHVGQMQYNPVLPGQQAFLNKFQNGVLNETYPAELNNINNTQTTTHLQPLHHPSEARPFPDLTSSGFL
# Experiment: In Vitro Assay 1: XRE-luciferase reporter assay, antagonism in human cell line (HepG2)
# Settings: Assay 1: AhR-Luc Human Antagonism (IC50, nM), unmarked values: kynurenine 200 μM, 6 hours
row,IC50 [nM],SMILES
1,> 1000,"CC(=O)N[C@H]1CN(c2cc(-c3ccc(Cl)cc3)nc(-c3cccnc3)n2)C[C@H]1O [Example 244, N-((3S,4R)-1-(6-(4-chlorophenyl)-2-(pyridin-3-yl)pyrimidin-4-yl)-4-hydroxypyrrolidin-3-yl)acetamide]"
2,10 to 100,"CC(=O)N[C@H]1CN(c2cc(-c3ccc(Cl)cc3)nc(-c3cccnc3)n2)C[C@@H]1O [Example 245, N-((3S,4S)-1-(6-(4-chlorophenyl)-2-(pyridin-3-yl)pyrimidin-4-yl)-4-hydroxypyrrolidin-3-yl)acetamide]"
3,10 to 100,"OC[C@H]1CCN(c2cc(-c3ccc(Cl)cc3)nc(-c3cccnc3)n2)C[C@H]1O [Example 247, (3S,4R)-1-(6-(4-chlorophenyl)-2-(pyridin-3-yl)pyrimidin-4-yl)-4-(hydroxymethyl)piperidin-3-ol]"
4,10 to 100,"OC[C@H]1CCN(c2cc(-c3ccc(C(F)(F)F)cc3)nc(-c3cccnc3)n2)C[C@H]1O [Example 248, (3S,4R)-4-(hydroxymethyl)-1-(2-(pyridin-3-yl)-6-(4-(trifluoromethyl)phenyl)pyrimidin-4-yl)piperidin-3-ol]"
5,10 to 100,"OC[C@H]1CCN(c2cc(-c3ccc(Cl)cc3)nc(-c3cccnc3)n2)C[C@H]1F [Example 249, ((3S,4R)-1-(6-(4-chlorophenyl)-2-(pyridin-3-yl)pyrimidin-4-yl)-3-fluoropiperidin-4-yl)methanol]"
6,< 10,"OC[C@H]1CCN(c2cc(-c3ccc(C(F)(F)F)cc3)nc(-c3cccnc3)n2)C[C@H]1F [Example 250, ((3S,4R)-3-fluoro-1-(2-(pyridin-3-yl)-6-(4-(trifluoromethyl)phenyl)pyrimidin-4-yl)piperidin-4-yl)methanol]"
7,< 10,"OC[C@@H]1CCN(c2cc(-c3ccc(Cl)cc3)nc(-c3cccnc3)n2)C[C@@H]1F [Example 251, ((3R,4S)-1-(6-(4-chlorophenyl)-2-(pyridin-3-yl)pyrimidin-4-yl)-3-fluoropiperidin-4-yl)methanol]"
8,< 10,"OC[C@@H]1CCN(c2cc(-c3ccc(C(F)(F)F)cc3)nc(-c3cccnc3)n2)C[C@@H]1F [Example 252, ((3R,4S)-3-fluoro-1-(2-(pyridin-3-yl)-6-(4-(trifluoromethyl)phenyl)pyrimidin-4-yl)piperidin-4-yl)methanol]"
9,< 10,"OC[C@H]1CCN(c2cc(-c3ccc(Cl)cc3)nc(-c3cccnc3)n2)C[C@@H]1F [Example 253, ((3R,4R)-1-(6-(4-chlorophenyl)-2-(pyridin-3-yl)pyrimidin-4-yl)-3-fluoropiperidin-4-yl)methanol]"
10,< 10,"OC[C@H]1CCN(c2cc(-c3ccc(C(F)(F)F)cc3)nc(-c3cccnc3)n2)C[C@@H]1F [Example 254, ((3R,4R)-3-fluoro-1-(2-(pyridin-3-yl)-6-(4-(trifluoromethyl)phenyl)pyrimidin-4-yl)piperidin-4-yl)methanol]"
11,10 to 100,"OC[C@H]1CN(c2cc(-c3ccc(Cl)cc3)nc(-c3cccnc3)n2)C[C@H]1O [Example 255, (3S,4R)-1-(6-(4-chlorophenyl)-2-(pyridin-3-yl)pyrimidin-4-yl)-4-(hydroxymethyl)pyrrolidin-3-ol]"
12,< 10,"OC[C@H]1CN(c2cc(-c3ccc(C(F)(F)F)cc3)nc(-c3cccnc3)n2)C[C@H]1O [Example 256, (3S,4R)-4-(hydroxymethyl)-1-(2-(pyridin-3-yl)-6-(4-(trifluoromethyl)phenyl)pyrimidin-4-yl)pyrrolidin-3-ol]"
13,< 10,"OC[C@H]1CN(c2cc(-c3ccc(Cl)cc3)nc(-c3cccnc3)n2)C[C@@H]1O [Example 257, (3R,4R)-1-(6-(4-chlorophenyl)-2-(pyridin-3-yl)pyrimidin-4-yl)-4-(hydroxymethyl)pyrrolidin-3-ol]"
14,< 10,"OC[C@H]1CCN(c2cc(-c3ccc(Cl)cc3)nc(-c3cccnc3)n2)C[C@@H]1O [Example 259, (3R,4R)-1-(6-(4-chlorophenyl)-2-(pyridin-3-yl)pyrimidin-4-yl)-4-(hydroxymethyl)piperidin-3-ol]"
15,< 10,"OC[C@@H]1CCN(c2cc(-c3ccc(Cl)cc3)nc(-c3cccnc3)n2)C[C@H]1O [Example 261, (3S,4S)-1-(6-(4-chlorophenyl)-2-(pyridin-3-yl)pyrimidin-4-yl)-4-(hydroxymethyl)piperidin-3-ol]"
16,< 10,"Cc1ccncc1-c1nc(-c2ccc(C(F)(F)F)cc2)cc(N2CC[C@H](O)C2)n1 [Example 263, (S)-1-(2-(4-methylpyridin-3-yl)-6-(4-(trifluoromethyl)phenyl)pyrimidin-4-yl)pyrrolidin-3-ol]"
17,10 to 100,"OC[C@@H]1CCN(c2cc(-c3ccc(Cl)cc3)nc(-c3cccnc3)n2)C[C@@H]1O [Example 264, (3R,4S)-1-(6-(4-chlorophenyl)-2-(pyridin-3-yl)pyrimidin-4-yl)-4-(hydroxymethyl)piperidin-3-ol]"
18,< 10,"OC[C@@H]1CCN(c2cc(-c3ccc(C(F)(F)F)cc3)nc(-c3cccnc3)n2)C[C@@H]1O [Example 265, (3R,4S)-4-(hydroxymethyl)-1-(2-(pyridin-3-yl)-6-(4-(trifluoromethyl)phenyl)pyrimidin-4-yl)piperidin-3-ol]"
19,< 10,"OC[C@@H]1CN(c2cc(-c3ccc(Cl)cc3)nc(-c3cccnc3)n2)C[C@H]1O [Example 266, (3S,4S)-1-(6-(4-chlorophenyl)-2-(pyridin-3-yl)pyrimidin-4-yl)-4-(hydroxymethyl)pyrrolidin-3-ol]"
20,< 10,"OC[C@@H]1CN(c2cc(-c3ccc(C(F)(F)F)cc3)nc(-c3cccnc3)n2)C[C@H]1O [Example 267, (3S,4S)-4-(hydroxymethyl)-1-(2-(pyridin-3-yl)-6-(4-(trifluoromethyl)phenyl)pyrimidin-4-yl)pyrrolidin-3-ol]"
21,< 10,"Cc1ncccc1-c1nc(-c2ccc(C(F)(F)F)cc2)cc(N2CC[C@H](O)C2)n1 [Example 269, (S)-1-(2-(2-methylpyridin-3-yl)-6-(4-(trifluoromethyl)phenyl)pyrimidin-4-yl)pyrrolidin-3-ol]"
22,< 10,"Oc1ncccc1-c1nc(-c2ccc(C(F)(F)F)cc2)cc(N2CC[C@H](O)C2)n1 [Example 270, (S)-3-(4-(3-hydroxypyrrolidin-1-yl)-6-(4-(trifluoromethyl)phenyl)pyrimidin-2-yl)pyridin-2-ol]"
23,< 10,"OCC1CCN(c2cc(-c3ccc(Cl)cc3O)nc(-c3cccnc3)n2)CC1 [Example 271, 5-chloro-2-(6-(4-(hydroxymethyl)piperidin-1-yl)-2-(pyridin-3-yl)pyrimidin-4-yl)phenol]"
24,10 to 100,"CC(C)(C)OC(=O)N1CCN(c2cc(-c3ccc(Cl)cc3)nc(-c3cccnc3)n2)C[C@H]1CO [Example 272, tert-butyl (S)-4-(6-(4-chlorophenyl)-2-(pyridin-3-yl)pyrimidin-4-yl)-2-(hydroxymethyl)piperazine-1-carboxylate]"
25,> 1000,"CS(=O)(=O)Nc1ccc(-c2cc(N3CCC(CO)CC3)nc(-c3cccnc3)n2)cc1 [Example 274, N-(4-(6-(4-(hydroxymethyl)piperidin-1-yl)-2-(pyridin-3-yl)pyrimidin-4-yl)phenyl)methanesulfonamide]"
26,10 to 100,"CN1CCN(c2ccc(-c3cc(N4CCC(CO)CC4)nc(-c4cccnc4)n3)cc2)CC1 [Example 275, (1-(6-(4-(4-methylpiperazin-1-yl)phenyl)-2-(pyridin-3-yl)pyrimidin-4-yl)piperidin-4-yl)methanol]"
